Assays:
[1] = tested on: Unencapsulated S. pneumoniae serotype 3 strain 3.8DW; experiment: Inhibition of S. pneumoniae adhesion to A549 cells, strain 3.8DW; assay type: cell-based, Streptococcus pneumoniae
Procedure: (§1) Inhibition of S. pneumoniae adhesion to A549 cells by addition of phages: A549 cells (type II epithelial lung carcinoma cells; ATCC, Rockville, Md., USA) were grown in DMEM medium supplemented with 10% foetal calf serum with penicillin and streptomycin (100 μg/ml each) at 37° C. in a humidified incubator. A549 cells (2.5×10^4/well) were cultured on fibronectin coated plates, to increase A549 cell adhesion to the wells and prevent their detachment during washings, in the absence of antibiotic for 24 hours at which time the cells reached confluence (5×10^4 cells/well on average). The plates were blocked with 1% gelatine for 1 hour and 10^6 CFU bacteria were added per well. The adhesion of S. pneumoniae to uncoated plates was negligible (<80 CFU/ml). The number of bacteria that adhered to fibronectin coated plates (8000±100 SD CFU/ml on average) was subtracted afterwards to determine the net number of bacteria that adhered to the A549 cells only. rFBA at the denoted concentrations (ranging from 5-30 μg/ml) was added to the cultured cells and incubated for an hour. Following extensive washings S. pneumoniae (10^6 CFU) were added for 1 hour incubation. To identify phages able to interfere in bacterial adhesion the bacteria were preincubated with the phages for 1 hour centrifuged and added to the cultured cells. […]

[2] = tested on: S. pneumoniae serotype 3 strain WU2; experiment: Intranasal inoculation mouse model: nasopharyngeal and lung colonization; assay type: in vivo, BALB/c mice; details: for number of bacteria in the lungs: p<0.05
Procedure: Inhibition of S. pneumoniae nasal and lung colonization with flamingo cadherin-related peptide: Seven weeks old BALB/c female mice (Harlan Laboratories, Israel) were housed in sterile conditions under 12 hour light/dark cycles and fed Purina Chow and tap water ad libitum. Animal experimental protocols were reviewed and approved by the Institutional Animal Care and Use Committee of the Ben-Gurion University of the Negev, Beer Sheva, Israel. For respiratory challenge with virulent S. pneumoniae mice were anaesthetized with Isoflurane (RxElite, Meridian, Id., USA) and inoculated intranasally (i.n.) with the denoted colony forming units (CFU) bacteria (in 25 μl PBS) prior and after treatment with the flamingo cadherin derived peptide at the denoted concentrations. […] The experiments were performed with groups of 4 mice at each treatment and each time point and the experiments were repeated on three different occasions.
To find whether FC peptide is capable of inhibiting S. pneumoniae colonization, mice were inoculated intranasally prior and after treatment with the FC-derived peptide at the denoted concentration. S. pneumoniae serotype 3, strain WU2 bacteria were treated with FC peptide, excess peptide was removed and the bacteria were inoculated intranasally. […] Using this size of inoculum, a natural clearance of bacteria from the lungs occurred 24 hours and 48 hours following inoculation.
Seven week old BALB/c female mice were anaesthetized with Isoflurane (RxElite, Meridian, Id.) and inoculated intranasally with S. pneumoniae serotype 3 strain WU2 ([…], a highly virulent bacterial strain) after treatment with 40 μg synthetic Flamingo cadherin receptor derived peptide (FCRP) for 1 hr. […]

[3] = tested on: S. pneumoniae serotype 3 strain WU2; experiment: as above; assay type: in vivo, BALB/c mice; details: 10^7 bacteria
[4] = tested on: S. pneumoniae encapsulated serotype 2 strain D39; experiment: Inhibition of S. pneumoniae adhesion to A549 cells, strain D39; assay type: cell-based, Streptococcus pneumoniae; details: p<0.001
Procedure: as §1, with “incubation.” for “incubation. To identify phages able to interfere in bacterial adhesion the bacteria were preincubated with the phages for 1 hour centrifuged and added to the cultured cells.”
(§2) The ability of FC derived synthetic peptide to interfere in S. pneumoniae adhesion to A459 cells was analyzed. […]

[5] = tested on: S. pneumoniae encapsulated serotype 3 strain WU2; experiment: Inhibition of S. pneumoniae adhesion to A549 cells, strain WU2; assay type: cell-based, Streptococcus pneumoniae
Procedure: as §1

[6] = tested on: S. pneumoniae serotype 3 strain WU2; experiment: Intraperitoneal lethal dose systemic infection (sepsis) mouse model; assay type: in vivo, BALB/c mice
Text: 1) A lethal dose of S. pneumoniae serotype 3 strain WU2 (100 CFU) was used in this experiment. Bacteria were either untreated or treated ex-vivo for 1 hr with FCRP and used to inoculate intraperitoneally 7 weeks old BALB/c mice.
2) A lethal dose of S. pneumoniae serotype 3 strain WU2 (100 CFU) was used in this experiment. Bacteria were co-administered intraperitonealy to 7 weeks old BALB/c mice in the presence and absence of FCRP. […] Furthermore, in mice infected in the absence of FCRP bacteria could be found in the spleens of 100% of the (FIG. 15B) mice.
3) In a similar experiment, the mice were inoculated with bacteria in the presence and absence of FCRP and the mice were monitored for their survival.

[7] = tested on: S. pneumoniae unencapsulated serotype 2 strain R6; experiment: Inhibition of S. pneumoniae adhesion to A549 cells, strain R6; assay type: cell-based, Streptococcus pneumoniae
Procedure: as §1, with “incubation.” for “incubation. To identify phages able to interfere in bacterial adhesion the bacteria were preincubated with the phages for 1 hour centrifuged and added to the cultured cells.”
as §2

rFBA = biological target: T1, rFBA (Streptococcus pneumoniae serotype 4, UniProt P0A4S1); experiment: Western blot like assay of FCRP binding to rFBA; details: rFBA on nitrocellulose probed with FCRP; FIG. 7C
T1 construct: made in house; host or cells: E. coli BL21(DE3)pLysS
Procedure: Western blots: rFBA and FCRP were separated by 1D-SDS PAGE, transferred to nitrocellulose and probed with FCRP or rFBA, respectively. Rabbit anti-FCRP-KLH serum or rabbit anti rFBA was added respectively. In both cases, anti-rabbit IgG (Jackson ImmunoResearch, West Grove, Pa.) was used for final identification. In the control experiment preimmune serum was used as first antibody.
To determine more directly whether FCRP binds to rFBA, Western blot like assays were performed where rFBA is separated using 1D SDS-PAGE, transferred to a nitrocellulose membrane and probed with FCRP. Binding of FCRP was detected by incubating the membrane sequentially with rabbit anti-FCRP-KLH serum and anti-rabbit IgG. […] In the control (FIG. 7D) the first antibody was a pre-immune serum. In the converse experiment, when FCRP is separated on SDS-PAGE, a band of approximately 1.5 kDa corresponding to the molecular weight of FCRP is bound by rFBA (FIG. 7 E). In the control (FIG. 7F) the first antibody was a pre-immune serum.

H-Ala-Asp-Ser-Asp-Ser-Asp-Ser-Asp-Leu-Ser-Leu-Glu-Glu-Glu-Arg-OH (H-ADSDSDSDLSLEEER-OH; listed as Homo sapiens) [FCRP, 15 amino acid peptide from Flamingo-cadherin]
maximal adhesion inhibition ([1]; 20 μg/well, FIG. 3B): 41%
bacterial colonization ([2]; 5×10^6 bacteria, 40 μg ex vivo, FIG. 11A): significant inhibition of bacterial colonization
aspiration to the lung ([2]; 5×10^6 bacteria, 40 μg ex vivo, FIG. 11B): reduced aspiration to the lung
pneumonia development ([2]; 5×10^6 bacteria, 40 μg ex vivo, FIG. 11C): reduced pneumonia development
nasopharyngeal colonization ([2]; 10^6 bacteria treated ex vivo 1 hr with 40 μg, 3, 24, 48 hours, FIG. 9A): inhibited nasopharyngeal colonization significantly
aspiration to the lungs ([2]; 10^6 bacteria treated ex vivo 1 hr with 40 μg, FIG. 9B): significant inhibition of aspiration to the lungs
bacterial load (FIG. 13A) ([2]; 10^7 bacteria, pre-treatment, 3 and 48 hrs): reduced bacterial load significantly
bacterial load in lungs (FIG. 13B) ([2]; 10^7 bacteria, pre-treatment, 24 hour): clear reduction in bacterial load
number of bacteria in the lungs ([2]; co-administered, 4 hours after inoculation): reduced significantly
colonization in the nasopharynx ([2]; inoculum 5×10^5, 20 μg/ml, 3, 6, 24 and 48 hours, FIG. 4A): inhibited colonization in the nasopharynx significantly
colonization of the nasopharynx ([2]; inoculum 5×10^5, 40 μg/ml, all time points, FIG. 4A): prevented S. pneumoniae colonization of the nasopharynx at all time points tested
colonization of the lung ([2]; inoculum 5×10^5, 20 or 40 μg/ml, 3 and 6 hours, FIG. 4B): inhibited significantly colonization of the lung
colonization in the nasopharynx ([2]; inoculum 10^6, 20 μg/ml, 3, 6, 24 and 48 hours, FIG. 4C): inhibited colonization in the nasopharynx significantly
colonization of the lung ([2]; inoculum 10^6, 40 μg/ml, 3, 6 and 24 hours, FIG. 4D): significantly inhibited colonization of the lung
colonization of the nasopharynx ([2]; inoculum 10^6, 40 μg/ml, FIG. 4C): significantly higher ability to inhibit S. pneumoniae colonization of the nasopharynx
bacteria in the lungs ([2]; inoculum 10^6, 20 or 40 μg/ml, 48 hours, FIG. 4D): no bacteria could be detected in the lungs
bacteria in the lungs ([2]; new peptide preparation, 48 hr following inoculation, FIG. 10C): no bacteria could be found in the lungs
nasopharyngeal colonization ([2]; new peptide preparation, pneumonia-causing batch, 10^6 bacteria, FIG. 10A): prevented completely
aspiration of the bacteria to the lungs ([2]; new peptide preparation, pneumonia-causing batch, 10^6 bacteria, FIG. 10B): prevented completely
number of bacteria in the lungs ([2]; peptide 1 hr after inoculation, 3 hours after peptide): reduced significantly
bacterial load (FIG. 13A) ([3]; one post inoculation treatment, 3 and 48 hrs): reduced bacterial load significantly
bacterial load in lungs (FIG. 13B) ([3]; post inoculation treatment, 24 hour): clear reduction in bacterial load
inhibition of adhesion to A549 ([4]; 5 μg/well): significantly
inhibition of adhesion to A549 cells ([4]; 20 μg/well): 90%
maximal inhibition of adhesion to A549 cells ([5]; 15 μg/well, FIG. 3A): 80%
survival rate ([6]; 100 CFU i.p., bacteria treated ex-vivo 1 hr, FIG. 14, p<0.05): increased the survival rate of the mice significantly
bacteria in the spleens ([6]; 100 CFU i.p., co-administered, FIG. 15): no bacteria could be recovered from the spleens
survival ([6]; lethal dose i.p., co-administration, FIG. 16, p<0.001): significant increase in survival
inhibition of adhesion to A549 ([7]; 5 μg/well, p<0.001): significantly
inhibition of adhesion to A549 cells ([7]; 15 μg/well): 75%
binding of FCRP to rFBA (rFBA): a band of 33.5 kDa was shown to bind FCRP

B1: rFBA: Recombinant Fructose Bisphosphate Aldolase (FBA; SP0605 Streptococcus pneumoniae TIGR4), 33.5 kDa FBA-HAT fusion protein (protein)
chain: MAIVSAEKFVQAARDNGYAVGGFNTNNLEWTQAILRAAEAKKAPVLIQTSMGAAKYMGGYKVARNLIANLVESMGITVPVAIHLDHGHYEDALECIEVGYTSIMFDGSHLPVEENLKLAKEVVEKAHAKGISVEAEVGTIGGEEDGIIGKGELAPIEDAKAMVETGIDFLAAGIGNIHGPYPVNWEGLDLDHLQKLTEALPGFPIVLHGGSGIPDEQIQAAIKLGVAKVNVNTECQIAFANATRKFARDYEANEAEYDKKKLFDPRKFLADGVKAIQASVEERIDVFGSEGKA
modifications: left off: small tags and cut ends
notes: Recombinant Fructose Bisphosphate Aldolase (FBA; SP0605 Streptococcus pneumoniae TIGR4), 33.5 kDa FBA-HAT fusion protein
inhibition of adhesion to A549 cells ([1]; 12 μg/well, protein added to cells, FIG. 5B): 92%
inhibition of adhesion to A549 cells ([5]; 0.5 μg/well, protein added to cells, FIG. 5A): 63%
